Results from patent US20250018002A1, “Gap Junction Modulators and Their Use for the Treatment of Age-Related Macular Degeneration” (Breye Therapeutics APS, priority 2021, published 2025).
Entries after “also recorded” stand apart in the source; their conditions may differ.

Tests used:
[1] = tested on: STZ-induced DR in the Brown Norway rat; experiment: Evans Blue retinal extravasation (vascular leakage) in STZ-induced diabetic retinopathy; assay type: in vivo; conditions: week 9 after STZ, 3 weekly IVT injections
Procedure: Diabetes was induced in the Brown Norway rats (aged 9-10 weeks) by a single dose of streptozotocin (STZ; 65 mg/kg. Sigma) in 10 mM sodium citrate buffer, pH 4.5. After the STZ injection, rats were placed in their cages with ad libitum food and 10% (w/v) sucrose solution in tap water for 48 h. The next morning, 5% glucose (1 ml) was injected intraperitoneally or subcutaneously to all induced rats. Four days after the first STZ injection, the success of the induction was monitored by measuring the blood glucose levels from the saphenous vein. The induction of diabetes was considered successful when the blood glucose values measured by the rapidmeter were equal or higher than 16 mmol/l (288 mg/dl). […]
The selected rats were monitored for blood glucose levels and animal health for 6 weeks, and then treated with weekly intravitreal (IVT) injections of vehicle or test compounds for three weeks for a total of 3× IVT eye injections per eye per animal. […]
Retinas were homogenized in formamide in a 1:10 ratio (w/v) and incubated overnight at +70°. […] Absorbance (λ=620 nm) of the samples was measured using a plate reader (Cytation 3, BioTek Instruments Inc., Winooski, VT) and the concentration of Evans Blue in each sample was calculated against a standard curve of Evans Blue and normalized to tissue weight. […]

kidney epithelial cells = conditions: Squires et al., 2021; cited from earlier work
[2] = tested on: STZ-induced DR in the Brown Norway rat; experiment: SD-OCT retinal thickness in STZ-induced diabetic retinopathy; assay type: in vivo; conditions: week 9 after STZ
Procedure: (§1) Diabetes was induced in the Brown Norway rats (aged 9-10 weeks) by a single dose of streptozotocin (STZ; 65 mg/kg. Sigma) in 10 mM sodium citrate buffer, pH 4.5. After the STZ injection, rats were placed in their cages with ad libitum food and 10% (w/v) sucrose solution in tap water for 48 h. The next morning, 5% glucose (1 ml) was injected intraperitoneally or subcutaneously to all induced rats. Four days after the first STZ injection, the success of the induction was monitored by measuring the blood glucose levels from the saphenous vein. The induction of diabetes was considered successful when the blood glucose values measured by the rapidmeter were equal or higher than 16 mmol/l (288 mg/dl). Animals that were not diabetic based on this criterion 96 h after the first STZ injection received a second STZ injection.
(§2) The selected rats were monitored for blood glucose levels and animal health for 6 weeks, and then treated with weekly intravitreal (IVT) injections of vehicle or test compounds for three weeks for a total of 3× IVT eye injections per eye per animal.
(§3) For IVT treatment administration, the animals were anesthetized animals, placed under a stereoscope (Leica Microsystems), and a drop of iodine was applied on the cornea and allowed to spread evenly (Minims Povidone lodine 5%, Bausch & Lomb). A small incision in the […] exposing the vitreous chamber was performed using a 30 G needle near the limbus. A microsyringe with a 33G needle (Hamilton Bonaduz AG, Bonaduz) attached was used to inject the compounds into the intravitreal space. The test solution was injected into the intravitreal space for 10 s, the needle was kept in place for additional 30 s before being removed to avoid the reflux of the compound. Chloramphenicol ointment was applied after the injection (Oftan Chlora, Santen Oy). The different treatments were administered three times by bilateral intravitreal administration of a volume of 5 μl at weeks six, seven, and eight after STZ induction.
Anesthetized rats were imaged with SD-OCT (Envisu R2200. Bioptigen Inc./Leica Microsystems) retinal scan at week nine as shown in FIG. 5C. The scanned area covers a 2.4×2.4 mm^2 of the retina centred around the optic nerve. Each scan is composed of 100 B Scans each one composed of 1000 A Scans. SD-OCT was performed on both eyes at week nine after DR induction prior to sacrifice and sampling.
The retinal thickness at week nine was analyzed by a convolutional neural network based on U-net architecture using transfer learning approach. The resulting segmentation masks were used to measure the layer thickness in each pixel-width column, i.e. a-scan, resulting in 1000 measuring points for each layer per one b-scan. Only measuring points that passed the automatic quality control criteria set were used in the calculations. The thickness results were presented as SD-OCT measurements of the inner retina, including the nerve ganglion cell layer, inner plexiform and inner nuclear layers; and the outer retina, including the outer plexiform layer, outer nuclear layer, inner and outer segment, and RPE/choroid. […] See FIGS. 5, 7 and 8 for the results of SD-OCT.
SD-OCT scans were taken at week nine prior to sampling. The retinal scans were segmented, and the thickness was analyzed by a convolutional neural network algorithm.
Outer retinal thickness was quantified from SD-OCT images from 24 locations to generate a mean thickness of outer retinal thickness. Outliers were removed using the GROUT method (Q=1%), leading to the removal of a total of 5 outliers (naïve: 0, STZ+Vehicle: 1; STZ+AF564: 1; STZ+Danegaptide: 1; STZ+AF564+Danegaptide: 2).
SD-OCT scans were taken at week nine prior to sampling. Retinal scans were segmented and the thickness was analyzed by a convolutional neural network algorithm. Inner retinal thickness was analyzed by region (FIG. 8).

[3] = tested on: STZ-induced DR in the Brown Norway rat; experiment: PAS staining of trypsin-digested retinal flat mounts: pericytes, pericyte ghosts, acellular capillaries; assay type: in vivo; conditions: week 9 after STZ
Procedure: as §1, §2
For IVT treatment administration, the animals were anesthetized animals, placed under a stereoscope (Leica Microsystems), and a drop of iodine was applied on the cornea and allowed to spread evenly (Minims Povidone lodine 5%, Bausch & Lomb). […]
Four to six individual images obtained from a central area, and from a peripheral area of the retinal vasculature were acquired using a Leica Thunder 3D Tissue Imager (Leica Microsystems). The number of acellular capillaries, the number of pericytes and the number of pericyte ghosts were manually counted by an investigator blinded to the experimental group assignment.
Vascular abnormalities and the effect of induction of DR by STZ induction were also assessed by quantification of acellular capillaries, pericytes and pericyte ghosts on trypsin-digested retinal wholemounts. For quantification, 4-15 individual images were quantified for each animal and the data from each image were included in the analysis.
Subsequently, number of pericyte ghosts was quantified.

Brown Norway rats = experiment: Tolerability, macroscopic ophthalmic examinations after IVT injections; assay type: in vivo; conditions: bilateral IVT 5 μl, three weekly injections
Procedure: as §3
STZ-induced cataracts are common in this model and developed moderate severity by the end of the study (FIG. 4). All test articles were well-tolerated, and no signs of ocular toxicity were identified by macroscopic ophthalmic examinations. Test articles exerted no differential effects on cataract development (FIG. 4).

[4] = tested on: Human retinal pigment epithelial cells (ARPE-19); experiment: Tight junction organization rate (TiJOR), anti-ZO-1 immunocytochemistry in stressed ARPE-19 monolayers; assay type: cell-based; conditions: danegaptide 100 nM, 24 h pre-treatment, then 48 h 30 mM glucose + sublethal tBHP; n=13-16
Procedure: For immunocytochemistry, ARPE-19 cells were grown to confluency in chamber slides for 72 h. Cells were then be pre-treated with Danegaptide (DGP; 100 nM) or vehicle control for 24 h. Subsequently, cells were challenged with a combination of sublethal oxidative stress (250 μM tert-butyl hydroperoxide; Millipore Sigma, St. Louis, MO) and hyperglycemia (30 mM glucose; Millipore Sigma, St. Louis, MO) for 48 h, in the continued presence of 100 nM DGP or vehicle.
Cells were labelled with anti-ZO-1 antibody (mouse anti-human 70-1, […], cat #339100, Invitrogen, Thermo Fisher Scientific, Carlsbad, CA) in antibody solution (3% normal goat serum, 1% bovine serum albumin, 0.5% Triton X-100, 0.05% sodium azide in 0.1 M Phosphate buffer pH 7.4) for 2 h at room temperature. […]
The tight junction organization rate (TiJOR) was calculated from confocal images, as described previously (Terryn et al., 2013). […]
Tight junction organization was assessed by immunocytochemistry using anti-zonula occludens 1 (ZO-1) immunostaining (bottom images of FIG. 2; that is, FIG. 2B), a major component of Tight Junctions that binds the cytoplasmic domain of both the Gap Junction transmembrane protein, Cx43, and the TJ transmembrane proteins, occludin(s) and claudin(s). The Tight Junction organization index (TiJOR) was calculated according to Terryn et al., 2013 and measures the degree of TJ dependent cell-cell coupling.

[5] = 3 weekly IVT injections, SD-OCT
[6] = 3 weekly IVT injections, average per group

Compound: NCC(=O)N1C[C@H](NC(=O)c2ccccc2)C[C@H]1C(=O)O [Danegaptide, (2S,4R)-1-(2-aminoacetyl)-4-benzoylamino-pyrrolidine-2-carboxylic acid]
- Reduction of EB extravasation vs STZ+Vehicle [1]: 68.9%
- Evans Blue (EB) extravasation, % of STZ+Vehicle ([1]; normalized to STZ+Vehicle, mean±S.E.M.): 31.1±5.3%
- ATP leakage from kidney epithelial cells (kidney epithelial cells): can reduce ATP leakage
- Total retinal thickness, IN [2, 5]: 206 ± 1.8 μm
- Total retinal thickness, IT [2, 5]: 217 ± 1.6 μm
- Total retinal thickness, SN [2, 5]: 205 ± 1.9 μm
- Total retinal thickness, ST [2, 5]: 210 ± 2.6 μm
- Total retinal thickness, Whole Retina [2, 5]: 212 ± 2.2 μm
- Outer retinal thickness, IN (inferior-nasal) [2, 6]: 121.17 μm
- Outer retinal thickness, IT (inferior-temporal) [2, 6]: 123.61 μm
- Outer retinal thickness, SN (superior-nasal) [2, 6]: 117.36 μm
- Outer retinal thickness, ST (superior-temporal) [2, 6]: 118.14 μm
- Effect on inner retinal thickness ([2]; regional analysis ST, SN, IT, IN): No biologically relevant effects
- Outer retinal thickness (mean) ([2]; weekly IVT injections at weeks 6, 7, 8, mean±S.E.M., STZ+Vehicle 123.8±0.9, naïve 119.8±0.5): 119.7±0.8 μm
- Effect on number of pericyte ghosts vs STZ+Vehicle ([3]; One-Way ANOVA, Dunnett's test): statistically significant reduction
- Acellular capillaries (number) ([3]; count per image, STZ+Vehicle 22 ± 1): 20 ± 1
- Pericytes (sum of the number of pericytes and pericyte ghosts) ([3]; count per image, STZ+Vehicle 52 ± 2): 49 ± 2
- Tolerability / ocular toxicity (Brown Norway rats): well tolerated
- Protection against loss of Tight Junction organization (TiJOR) [4]: completely protected; also recorded: partial protection
